The record followed here is patent US9079821B2, “Quinone based nitric oxide donating compounds” (NICOX S.A., priority 2011, dated 2015).

In test [1] the test system is NADPH-induced lipidic peroxidation of membrane lipids (hepatic microsomal membranes). Nature of the test: In vitro antioxidant activity (TBARS test), Method A (ADP-FeCl3 and NADPH). The note with it: inhibition of TBARS production after 30 min incubation, read-out: Antioxidant activity IC50 μM (CL 95%). Format: biochemical, rat. Here is the method: The antioxidant properties of compounds (6) (disclosed in example 1) and compound (23) (disclosed in example 19) and reference antioxidant compounds were assessed after NADPH-induced lipidic peroxidation of membrane lipids in rat hepatocytes using the detection of 2-thiobarbituric acid reactive substances (TBARS) by visible spectroscopy.
Hepatic microsomal membranes from male Wistar rats (200-250 g) were prepared by differential centrifugation (8000 g, 20 min; 120000 g, 1 h) in a HEPES/sucrose buffer (10 mM, 250 mM, pH 7.4) and stored at −80° C. Incubation was performed at 37° C. in a Tris-HCl/KCl (100 mM/150 mM, pH 7.4) containing microsomal membranes (2 mg prot/mL), sodium ascorbate (100 μM), and DMSO solutions of the tested compounds. Lipid peroxidation was initiated by adding ADP-FeCl3 and NADPH (Method A) or 2.5 μM FeSO4 (Method B) (as described by Boschi D. et al., J. Med. Chem. 2006, 49:2886-2897). Aliquots were taken from the incubation mixture at 5, 15, and 30 min and treated with trichloroacetic acid (TCA) 10% w/v. Lipid peroxidation was assessed by spectrophotometric (543 nm) determination of the TBARS consisting mainly of malondialdehyde (MDA). TBARS concentrations (expressed in nmol/mg protein) were obtained by interpolation with a MDA standard curve. The antioxidant activity of tested compounds was evaluated as the percent inhibition of TBARS production with respect to control samples, using the values obtained after 30 min of incubation. IC50 values were calculated by nonlinear regression analysis.

The subject of the next test is mdx mice. Nature of the test: Mouse model of Duchenne Muscle Distrophy (whole body tension in mdx mice). Format: in vivo. The note with it: for WBT5: average of top 5 FPTs divided by body weight; for WBT10: average of top 10 FPTs divided by body weight. Here is the method: The effects of the compound (6) on muscle function were assessed in mdx mice, which are genetically and biochemically homologous to human DMD. Animals of 4 weeks of age were treated for 3 months with the compound (6) at two different doses (30 and 100 mg/kg), which was incorporated into the diet. Control mdx and wild-type mice were fed the same diet without any drug. To determine if treatment with the compound would ameliorate muscle function in mdx mice, we evaluated the whole body tension which is a measure of the total muscle force. Indeed, this assay, well described in the Treat-NMD standard procedures for the preclinical studies in DMD, is used to determine the ability of mice to exert tension in a pulling maneuver that is elicited by stroking the tail. It is thought to reflect the maximal acute phasic force of the mouse can achieve to escape a potentially harmful event. Briefly, each mouse was placed at the entry of a polyvinyl chloride tube that had been lined interiorly with an aluminum screen, and the tail of the mouse was connected to a tension transducer. Forward pulling movements were elicited by a standardized stroke of the tail with serrated forceps and the corresponding forward pulling tensions (FPTs) were recorded using a Biopac recording system. Between 15 and 20 FPTs were generally recorded during each session. The whole body tension 5 (WBT5) and WBT10 were obtained by dividing the average of the top 5 or top 10 FPTs, respectively, by the body weight.
Table.1 Whole Body Tension (WBT) measured in wild-type and mdx control mice and in mdx mice treated with two different doses of NCX 1443 (30 and 100 mg/kg) incorporated in the diet. Data are presented as mean±standard deviation. For each group, n=8-10 mice. *p<0.05 vs mdx vehicle, ^###p<0.001 vs wild-type (wt) mice, 1-way ANOVA followed by Tuckey post-hoc test.

[2] abbreviates: 30 mg/kg/day in the diet for 3 months.
Where [3] appears, read: 100 mg/kg/day in the diet for 3 months.

For `COC1=C(OC)C(=O)C(CCCCCCCCCCO[N+](=O)[O-])=C(C)C1=O` [Compound (6), 10-(4,5-dimethoxy-2-methyl-3,6-dioxocyclohexa-1,4-dienyl)decyl nitrate], the IC50 in test [1] turned out to be 2 µM. In addition, in the test on mdx mice (setting [2]), the WBT5 was 3.6 ± 0.7^### and the WBT10 is on record as 3.0 ± 0.7^###. In the test with mdx mice (setting [3]), the WBT5 is given as 4.1 ± 0.8^###* and the WBT10 was 3.4 ± 0.6^###*. The “effect on muscle function, in words” value in the test on mdx mice (30 and 100 mg/kg in the diet for 3 months) was “showed a dose-response trend in improving muscle function reaching a significant effect at the dose of 100 mg/kg”.

For orientation: IC50 means the concentration at which inhibition is half-maximal.
